In PMC6161602, “Synthesis and characterisation of (Z)-styrylbenzene derivatives as potential selective anticancer agents” (Journal of Enzyme Inhibition and Medicinal Chemistry, 2018):

Columns and labels:
MGC-803 cells = assay: MTT cell growth inhibition assay, MGC-803; type: cell-based, human; settings: for IC50: MTT, 48 h incubation, MGC-803
From the text: (§1) All human cell lines were used in this study. MGC-803 late-stage differentiation gastric cancer cell, A549 lung cancer cell, HepG2 hepatoma cell, AGS gastric cancer cell, BEL-7402 liver cancer cell, HCT-116 colorectal cancer cell, HeLa cervical cancer cell, SGC-7901 early differentiation gastric cancer cell, L-02 normal liver cell, MCF-7 breast cancer cell, and MCF-10A normal breast cell were initially purchased from American Type Culture Collection (ATCC, Manassas, VA, USA). RPMI-1640 media, Dulbecco’s modified Eagle’s medium (DMEM), and foetal bovine serum (FBS) were provided from Gibco Company (Grand Island, NY, USA). The cells were maintained in DMEM or RPMI-1640, supplemented with 10% FBS, 100 IU/mL penicillin and […] (Grand Island, NY, USA), and at 37 °C in a humidified atmosphere containing 5% CO2.
(§2) Cells were plated in 96-well plates at a density of 30–40% to ensure exponential growth throughout the experimental period, and then allowed to adhere for 1 day[21]. Next, the cells were treated with four serial concentrations (1, 10, 50, and 100 µM) of each compound. Taxol, CA-4, and CA-4P (phosphorylated form of CA-4) were used as positive controls. After 48 h incubation, MTT solution was added to each well at a final concentration of 2 mg/mL, and incubated for an additional 4 h. Next, the MTT solution was removed and 150 µL of dimethyl sulphoxide (DMSO)/well was added (Sigma-Aldrich, St Louis, MO, USA). The plates were shaken vigorously at RT to ensure complete solubilisation, and absorption at 492 nm was determined.
(§3) According to standard protocol, preliminary in vitro anti-proliferative activities of the synthesised compounds were evaluated by MTT assay, using nine human cancer cell lines (MGC-803, A549, HepG2, AGS, BEL-7402, HCT116, HeLa, SGC-7901, and MCF-7) and two normal human cell lines (L-02 and MCF-10A), and compared with those of CA-4, CA-4P, and taxol.

BEL-7402 cells [1] = assay: MTT cell growth inhibition assay, BEL-7402; type: cell-based, human; settings: Homo sapiens; MTT, 48 h incubation, Bel-7402
From the text: as §1, §2, §3

HCT116 cells = assay: MTT cell growth inhibition assay, HCT116; type: cell-based, human
From the text: as §1, §2, §3

[2] = test system: HeLa cervical cancer cell; assay: MTT cell growth inhibition assay, HeLa; type: cell-based, human; settings: Homo sapiens, 48 h incubation
From the text: as §1, §2, §3

[3] = test system: SGC-7901 early differentiation gastric cancer cell; assay: MTT cell growth inhibition assay, SGC-7901; type: cell-based, human; settings: Homo sapiens, 48 h incubation
From the text: as §1, §2, §3

[4] = test system: MCF-10A normal breast cell; assay: MTT cell growth inhibition assay, MCF-10A (normal); type: cell-based, human; settings: Homo sapiens, 48 h incubation, MCF-10A normal cells
From the text: as §1, §2, §3

MCF-7 breast cancer cell = assay: MTT cell growth inhibition assay, MCF-7; type: cell-based, human
From the text: as §1, §2, §3

BEL-7402 cells [5] = assay: Analysis of apoptosis by flow cytometry (Annexin V-FITC/PI); type: cell-based, human; settings: BEL-7402, 0.1 µM, 12 h; vehicle 4.7%
Protocol: Apoptosis was detected using an apoptosis detection kit. BEL-7402 cells were plated in 6-well plates (5.0 × 10^5 cells/well) and incubated at 37 °C overnight. Exponentially growing cells were then incubated with 6h at either 0.01 or 0.1 µM, or taxol at 0.1 µM. Vehicle group was treated with 0.1% DMSO. Following 12 h of incubation, cells were analysed for apoptosis as previously described, using a FACSCalibur flow cytometer with Cell Quest software (Becton-Dickinson, Franklin Lakes, NJ, USA).

BEL-7402 cells [6] = assay: Transwell cell migration assay; type: cell-based, human; settings: BEL-7402, transwell, 24 h, 0.1 or 0.5 µM
Protocol: Quantitative cell migration was performed using 24-well Boyden chambers (Corning, NY, USA) as described. Briefly, transwells with 8-µm pore size filters were inserted into 24-well plates. RPMI-1640 (500 µL) containing 10% FBS was added to the lower chamber, and 100 µL of a serum-free cell suspension (1 × 10^5 cells) was placed in the upper chamber. The BEL-7402 cells were pre-treated with indicated concentrations of 6h, taxol, or DMSO. The plates were incubated at 37 °C with 5% CO2 for 24 h, and the cells on the upside were removed using cotton swaps. After several rinses, the cells adhering in the lower layer of insert were fixed with methanol and stained with 1× crystal violet solution. The number of migrated cells in nine randomly selected fields from triplicate chambers was counted in each experiment under a phase-contrast microscope at 200× magnification.

BEL-7402 cells [7] = assay: Colony formation assay; type: cell-based, human; settings: BEL-7402, exposure > 10 days, fitted from inhibition ratio of colony formation
Protocol: A previously described colony formation assay was used[7] with slight modification. 1 × 10^4 BEL-7402 cells/well were seeded into 6-well plates and then stimulated with the indicated concentration of 6h, taxol, or DMSO. The plates were removed from incubation when colonies were large enough to count (>50 cells). Colonies were then fixed and stained with 1 × Giemsa solution, rinsed, allowed to dry, and counted. All the experiments were repeated independently at least three times. The LD50 value for 6h was determined using SigmaPlot II.

BEL-7402 cells [8] = assay: Trypan blue staining; type: cell-based; settings: 0.001 µM to 10 µM, data not shown
Protocol: Trypan blue staining was used to further investigate the cytotoxicity of 6h.

cyclin A = assay: Western blotting, cyclin A; type: cell-based, human; settings: BEL-7402, 12 h, immunoblot, dose-dependent
Protocol: (§4) BEL-7402 cells were harvested in logarithmic growth phase and the adherent and floating cells were collected after 12 h of drug treatment. The collected cells were resuspended in cold RIPA buffer (100 mM NaCl, 100 mM Tris (pH7.4), 10% Triton X-100, 1 mM PMSF, pH7.5) with 0.1 µM leupetin protease inhibitor as well as 1 µg/mL pepstatin and cracked on ice for 30 min. Then according to the reference to did immunoblotting assay.

cyclin D1 = assay: Western blotting, cyclin D1; type: cell-based, human; settings: BEL-7402, 12 h, immunoblot, dose-dependent
Protocol: as §4

cyclin B1 = assay: Western blotting, cyclin B1; type: cell-based, human; settings: BEL-7402, 12 h, immunoblot
Protocol: as §4

## COc1cc(/C(C#N)=C/c2ccc(C)cc2)cc(OC)c1OC [Compound 6h, (Z)-3-(p-Tolyl)-2-(3,4,5-trimethoxyphenyl)acrylonitrile]
MGC-803 cells
  fold more active than taxol against MGC-803 cells: 6 fold
  IC50: < 0.01 µM
MGC-803 cells; Homo sapiens, MGC-803, 48 h
  IC50: 0.01 to 7.21 µM
BEL-7402 cells [1]
  IC50: 0.15 ± 0.03 µM
HCT116 cells; Homo sapiens, HCT-116, MTT, 48 h incubation, HCT116
  IC50: 0.61 ± 0.16 µM
HCT116 cells; selectivity index, IC50 (L-02)/IC50 (HCT116)
  SI IC50 (L-02/HCT116): >163.9
[2]
  IC50: > 100 µM
[3]
  IC50: > 100 µM
[4]
  IC50: 9.45 ± 5.25 µM
MCF-7 breast cancer cell; Homo sapiens, MCF7, MTT, 48 h incubation, MCF-7
  IC50: 2.61 ± 0.98 µM
MCF-7 breast cancer cell; selectivity index, IC50 (MCF-10A)/IC50 (MCF-7)
  SI IC50 (MCF-10A/MCF-7): >3.6
BEL-7402 cells [5]
  total apoptotic cells (early + late apoptotic cells): 10.2%
BEL-7402 cells [6]
  migration ratio compared with the control group: markedly decreased
BEL-7402 cells [7]
  LD50 (colony formation): 0.056 ± 0.0047 µM
BEL-7402 cells [8]
  percentages of dead cells (trypan blue): negligible
Cyclin A
  expression of cyclin A compared with the vehicle group: lower expression
Cyclin D1
  expression of cyclin D1 compared with the vehicle group: lower expression
Cyclin B1
  expression of cyclin B1 compared with vehicle or 0.1 µM of taxol: increased expression
